Reference: patent US8455688B2, “HDAC inhibitors” (Lixte Biotechnology, Inc., priority 2007, dated 2013)
Converted amounts (≈) assume the structure as drawn. Read-outs that look alike come from different tables or passages of the source.

Tests used:
A. fumigatus = experiment: Broth dilution antifungal susceptibility testing, A. fumigatus; format: cell-based, Aspergillus fumigatus; conditions: Aspergillus fumigatus, 80% inhibition, read-out: minimum inhibitory concentration (MIC)
Description: (§1) A total of 23 isolates were tested to include 3 Candida albicans, 3 Candida glabrata, 3 Cryptococcus neoformans, 3 Aspergillus fumigatus, 3 Rhizopus oryzae, 3, Fusarium solani, 3 Pseudallescheria boydii, and 2 […]. All isolates were clinical isolates submitted to the Fungus Testing Laboratory for evaluation. Antifungal susceptibility testing was accomplished according to the methods outlined in the National Committee for Clinical Laboratory Standards, M-27A2, Reference Method for Broth Dilution Antifungal Susceptibility Testing of Yeasts; Approved Standard, and M38-A “Reference Method for Broth Dilution Antifungal Susceptibility Testing of Conidium-Forming Filamentous Fungi; Approved Standard”. This includes testing in RPMI-1640 with glutamine and without bicarbonate, an inoculum size of 0.5-2.5×10^3 for yeasts or […] for moulds, and incubation at 35° C. for 24 and 48 hours. […] Drug concentrations were 0.125-64 μg/ml. A 10 mg portion of each powder was weighed out and added to 1 ml of 100% DMSO for compound 205. The resulting concentration of […] was diluted to a working concentration of 6400 μg/ml for compound 205 in 100% DMSO. All subsequent dilutions were also made using the respective diluents. Final testing concentrations ranged from 0.125-64 μg/ml. The NCCLS recommended medium RPMI-1640 (Hardy Diagnostics, Santa Monica, Calif.) was utilized as the test medium. All isolates in this study were clinical isolates received in the Fungus Testing Laboratory for standard antifungal susceptibility testing and/or identification. Isolates, which were not sent for identification, were confirmed to assure testing integrity. A total of 23 were tested to include 3 Candida albicans, 3 Candida glabrata, 3 Cryptococcus neoformans, 3 Aspergillus fumigatus, 3 Rhizopus oryzae, 3, Fusarium solani, 3 Pseudallescheria boydii, and 2 […]. Minimum inhibitory concentrations (MIC) were determined at the first 24-hour interval where growth could be determined in the drug-free control tube.

T. rubrum = experiment: Broth dilution antifungal susceptibility testing, T. rubrum; format: cell-based, Trichophyton rubrum; conditions: Trichophyton rubrum, 80% inhibition, read-out: minimum inhibitory concentration (MIC)
Description: as §1

C. neoformans = experiment: Broth dilution antifungal susceptibility testing, C. neoformans; format: cell-based; conditions: Cryptococcus neoformans, 50% reduction in turbidity, read-out: minimum inhibitory concentration (MIC)
Description: as §1

C. glabrata = experiment: Broth dilution antifungal susceptibility testing, C. glabrata; format: cell-based, Candida glabrata; conditions: Nakaseomyces glabratus, 50% reduction in turbidity, read-out: minimum inhibitory concentration (MIC)
Description: as §1

R. arrhizus = experiment: Broth dilution antifungal susceptibility testing, R. arrhizus; format: cell-based, Rhizopus oryzae; conditions: Rhizopus arrhizus, 80% inhibition, read-out: minimum inhibitory concentration (MIC)
Description: as §1

F. solani = experiment: Broth dilution antifungal susceptibility testing, F. solani; format: cell-based; conditions: Fusarium solani, 80% inhibition, read-out: minimum inhibitory concentration (MIC)
Description: as §1

S. apiospermum = experiment: Broth dilution antifungal susceptibility testing, S. apiospermum; format: cell-based, Pseudallescheria boydii; conditions: Scedosporium apiospermum, 80% inhibition, read-out: minimum inhibitory concentration (MIC)
Description: as §1

C. albicans = experiment: Broth dilution antifungal susceptibility testing, C. albicans; format: cell-based, Candida albicans; conditions: Candida albicans, 50% reduction in turbidity, read-out: minimum inhibitory concentration (MIC)
Description: as §1

[1] = 24 h, isolate 06-4126, 24 hours
[2] = 24 h, isolate 07-2039, 24 hours
[3] = 48 h, isolate 06-4126, 48 hours
[4] = 48 h, isolate 07-2039, 48 hours
[5] = 24 h, isolate 07-1743, 24 hours
[6] = 24 h, isolate 07-2055, 24 hours
[7] = 48 h, isolate 07-1743, 48 hours
[8] = 48 h, isolate 07-2055, 48 hours
[9] = 24 h, isolate 07-2665, 24 hours
[10] = 24 h, isolate 07-2737, 24 hours
[11] = 24 h, isolate 07-2829, 24 hours
[12] = 48 h, isolate 07-2665, 48 hours
[13] = 48 h, isolate 07-2737, 48 hours
[14] = 48 h, isolate 07-2829, 48 hours
[15] = 24 h, isolate 07-2964, 24 hours
[16] = 24 h, isolate 07-2965, 24 hours
[17] = 24 h, isolate 07-3013, 24 hours
[18] = 48 h, isolate 07-2964, 48 hours
[19] = 48 h, isolate 07-2965, 48 hours
[20] = 48 h, isolate 07-3013, 48 hours
[21] = 24 h, isolate 07-1870, 24 hours
[22] = 24 h, isolate 07-2044, 24 hours
[23] = 24 h, isolate 07-2078, 24 hours
[24] = 48 h, isolate 07-1870, 48 hours
[25] = 48 h, isolate 07-2044, 48 hours
[26] = 48 h, isolate 07-2078, 48 hours
[27] = 24 h, isolate 07-1399, 24 hours
[28] = 24 h, isolate 07-1755, 24 hours
[29] = 24 h, isolate 07-1867, 24 hours
[30] = 48 h, isolate 07-1399, 48 hours
[31] = 48 h, isolate 07-1755, 48 hours
[32] = 48 h, isolate 07-1867, 48 hours
[33] = 24 h, isolate 07-1333, 24 hours
[34] = 24 h, isolate 07-1502, 24 hours
[35] = 24 h, isolate 07-1601, 24 hours
[36] = 48 h, isolate 07-1333, 48 hours
[37] = 48 h, isolate 07-1502, 48 hours
[38] = 48 h, isolate 07-1601, 48 hours
[39] = 24 h, isolate 07-3006, 24 hours
[40] = 24 h, isolate 07-3011, 24 hours
[41] = 24 h, isolate 07-3012, 24 hours
[42] = 48 h, isolate 07-3006, 48 hours
[43] = 48 h, isolate 07-3011, 48 hours
[44] = 48 h, isolate 07-3012, 48 hours

SMILES: O=C(CCCCCNC(=O)c1cc(Cl)ccc1S)Nc1ccccc1 [Compound 210]
- MIC (A. fumigatus; 24 h, isolate 05-388, 24 hours): 2 µg/mL (≈ 5.31 µM)
- MIC (A. fumigatus; [1]): 2 µg/mL (≈ 5.31 µM)
- MIC (A. fumigatus; [2]): 2 µg/mL (≈ 5.31 µM)
- MIC (A. fumigatus; 48 h, isolate 05-388, 48 hours): > 64 µg/mL
- MIC (A. fumigatus; [3]): > 64 µg/mL
- MIC (A. fumigatus; [4]): > 64 µg/mL
- MIC (T. rubrum; [5]): 0.25 µg/mL (≈ 0.663 µM)
- MIC (T. rubrum; [6]): 0.25 µg/mL (≈ 0.663 µM)
- MIC (T. rubrum; [7]): 0.5 µg/mL (≈ 1.33 µM)
- MIC (T. rubrum; [8]): 0.5 µg/mL (≈ 1.33 µM)
- MIC (C. neoformans; [9]): > 64 µg/mL
- MIC (C. neoformans; [10]): > 64 µg/mL
- MIC (C. neoformans; [11]): > 64 µg/mL
- MIC (C. neoformans; [12]): > 64 µg/mL
- MIC (C. neoformans; [13]): > 64 µg/mL
- MIC (C. neoformans; [14]): > 64 µg/mL
- MIC (C. glabrata; [15]): > 64 µg/mL
- MIC (C. glabrata; [16]): > 64 µg/mL
- MIC (C. glabrata; [17]): > 64 µg/mL
- MIC (C. glabrata; [18]): > 64 µg/mL
- MIC (C. glabrata; [19]): > 64 µg/mL
- MIC (C. glabrata; [20]): > 64 µg/mL
- MIC (R. arrhizus; [21]): 4 µg/mL (≈ 10.6 µM)
- MIC (R. arrhizus; [22]): 4 µg/mL (≈ 10.6 µM)
- MIC (R. arrhizus; [23]): > 64 µg/mL
- MIC (R. arrhizus; [24]): > 64 µg/mL
- MIC (R. arrhizus; [25]): > 64 µg/mL
- MIC (R. arrhizus; [26]): > 64 µg/mL
- MIC (F. solani; [27]): 1 µg/mL (≈ 2.65 µM)
- MIC (F. solani; [28]): 1 µg/mL (≈ 2.65 µM)
- MIC (F. solani; [29]): 2 µg/mL (≈ 5.31 µM)
- MIC (F. solani; [30]): > 64 µg/mL
- MIC (F. solani; [31]): > 64 µg/mL
- MIC (F. solani; [32]): > 64 µg/mL
- MIC (S. apiospermum; [33]): 1 µg/mL (≈ 2.65 µM)
- MIC (S. apiospermum; [34]): 1 µg/mL (≈ 2.65 µM)
- MIC (S. apiospermum; [35]): 1 µg/mL (≈ 2.65 µM)
- MIC (S. apiospermum; [36]): > 64 µg/mL
- MIC (S. apiospermum; [37]): > 64 µg/mL
- MIC (S. apiospermum; [38]): > 64 µg/mL
- MIC (C. albicans; [39]): > 64 µg/mL
- MIC (C. albicans; [40]): > 64 µg/mL
- MIC (C. albicans; [41]): > 64 µg/mL
- MIC (C. albicans; [42]): > 64 µg/mL
- MIC (C. albicans; [43]): > 64 µg/mL
- MIC (C. albicans; [44]): > 64 µg/mL

SMILES: COc1ccc(S)c(C(=O)NCCCCCC(=O)Nc2ccccc2)c1 [Compound 211]
- MIC (A. fumigatus; 24 h, isolate 05-388, 24 hours): 2 µg/mL (≈ 5.37 µM)
- MIC (A. fumigatus; [1]): 2 µg/mL (≈ 5.37 µM)
- MIC (A. fumigatus; [2]): 2 µg/mL (≈ 5.37 µM)
- MIC (A. fumigatus; 48 h, isolate 05-388, 48 hours): > 64 µg/mL
- MIC (A. fumigatus; [3]): > 64 µg/mL
- MIC (A. fumigatus; [4]): > 64 µg/mL
- MIC (T. rubrum; [5]): ≤ 0.125 µg/mL
- MIC (T. rubrum; [6]): ≤ 0.125 µg/mL
- MIC (T. rubrum; [7]): ≤ 0.125 µg/mL
- MIC (T. rubrum; [8]): ≤ 0.125 µg/mL
- MIC (C. neoformans; [9]): 8 µg/mL (≈ 21.5 µM)
- MIC (C. neoformans; [10]): 8 µg/mL (≈ 21.5 µM)
- MIC (C. neoformans; [11]): 8 µg/mL (≈ 21.5 µM)
- MIC (C. neoformans; [12]): 16 µg/mL (≈ 43 µM)
- MIC (C. neoformans; [13]): 16 µg/mL (≈ 43 µM)
- MIC (C. neoformans; [14]): 16 µg/mL (≈ 43 µM)
- MIC (C. glabrata; [15]): > 64 µg/mL
- MIC (C. glabrata; [16]): > 64 µg/mL
- MIC (C. glabrata; [17]): > 64 µg/mL
- MIC (C. glabrata; [18]): > 64 µg/mL
- MIC (C. glabrata; [19]): > 64 µg/mL
- MIC (C. glabrata; [20]): > 64 µg/mL
- MIC (R. arrhizus; [21]): 4 µg/mL (≈ 10.7 µM)
- MIC (R. arrhizus; [22]): 4 µg/mL (≈ 10.7 µM)
- MIC (R. arrhizus; [23]): 8 µg/mL (≈ 21.5 µM)
- MIC (R. arrhizus; [24]): > 64 µg/mL
- MIC (R. arrhizus; [25]): > 64 µg/mL
- MIC (R. arrhizus; [26]): > 64 µg/mL
- MIC (F. solani; [27]): 4 µg/mL (≈ 10.7 µM)
- MIC (F. solani; [28]): 4 µg/mL (≈ 10.7 µM)
- MIC (F. solani; [29]): 2 µg/mL (≈ 5.37 µM)
- MIC (F. solani; [30]): 8 µg/mL (≈ 21.5 µM)
- MIC (F. solani; [31]): 8 µg/mL (≈ 21.5 µM)
- MIC (F. solani; [32]): 8 µg/mL (≈ 21.5 µM)
- MIC (S. apiospermum; [33]): 2 µg/mL (≈ 5.37 µM)
- MIC (S. apiospermum; [34]): 2 µg/mL (≈ 5.37 µM)
- MIC (S. apiospermum; [35]): 2 µg/mL (≈ 5.37 µM)
- MIC (S. apiospermum; [36]): 4 µg/mL (≈ 10.7 µM)
- MIC (S. apiospermum; [37]): 4 µg/mL (≈ 10.7 µM)
- MIC (S. apiospermum; [38]): 4 µg/mL (≈ 10.7 µM)
- MIC (C. albicans; [39]): > 64 µg/mL
- MIC (C. albicans; [40]): > 64 µg/mL
- MIC (C. albicans; [41]): > 64 µg/mL
- MIC (C. albicans; [42]): > 64 µg/mL
- MIC (C. albicans; [43]): > 64 µg/mL
- MIC (C. albicans; [44]): > 64 µg/mL
